# Source: patent publication US20220127297A1, “Novel Antibacterial 3"-Derivatives Of 4,6-Disubstituted 2,5-Dideoxystreptamine Aminoglycoside Antibiotics” (AGILeBiotics B.V., priority 2018, published 2022)
# Read-outs that look alike come from different tables or passages of the source.
# Experiments:
# [1] = test system: K. pneumoniae DSM 26371; experiment: MIC 50, broth micro-dilution, DSM strains; format: cell-based, Klebsiella pneumoniae
# From the text: 3.2 Against Selected Bacteria of the ESKAPE Panel and Enterococcus faecalis (DSM Strains)
# (§1) Tested reference compounds. Amikacin sulfate (Cat. No. 01693, Chem-Impex), Gentamicin sulfate (Cat. No. G4918, Sigma Aldrich).
# Microbial strains. Enterococcus faecalis DSM 2570, Klebsiella pneumoniae DSM 26371, Acinetobacter baumannii DSM 105126, Enterobacter cloacae 3MRGN (clinical bronchial aspirate isolate).
# Culture media and equipment. BBL™ Mueller Hinton Broth 2 (Lot. BCBW1143, Cat. No. 70192, Sigma); Trypcase Soy Blood-agar plates (Cat. No. 43001, Biomérieux); Cryoinstant (contains 15% glycerol; Cat. No. 822070ZA, VWR International); GasPak™ EZ Standard Incubation Container (Cat. No. 260671, Becton Dickinson); GasPak™ EZ Campy Container System Sachets (Cat. No. 260680, Becton Dickinson); 96-well deep well plate, 1 mL (Cat. No. 0030506.200, Eppendorf); Plate lid (Cat. No. 0030131.525, Eppendorf); 96-well plate, F-bottom (Cat. No. 260860, Nunc); Incubator (Sartorius Certomat BS-1); Laminar flow (Heraeus HS12); UV/VIS meter (Perkin Elmer Lambda Bio+); Platereader (Tecan Infinite M200 Pro).
# (§2) Compound preparation. Compounds were prepared in MH2 media at a concentration of 5 mM and stored at 4° C. For testing, solutions of 128 μM were prepared in MH2, for tests against E. faecalis a solution of 512 μM was prepared. Out of these working solutions, 400 μL was transferred to wells in the first column of 96-well deep well plates. Each compound was transferred in triplicate. Plates were previously filled with 200 μL of MH2 media in all wells except for the wells in the first column. After compound and antibiotic addition, the compounds were serial two-fold diluted by transferring 200 μL from the first to the second column, then from the second to the third column and so on. Finally, 200 μL was removed from the last column.
# Inoculum preparation. Microorganisms used were all revived from 15% glycerol storage in Croinstant tubes at −28° C. by plating them on blood agar plates. A. baumanni, and E. cloacae were grown aerobically at 37° C., E. faecalis was grown microaerophilically at 37° C., and K. pneumoniae was grown aerobically at 37° C. Plates were stored at 4° C. for up to two weeks, after which new plates were prepared from −28° C. A single colony was inoculated in MH2 media and grown at 37° C. and 200 rpm to an optical density (measured by UV/Vis spectroscopy) of 0.6-0.8 at 600 nm. Out of these suspensions, actual inoculums were prepared by diluting them to an optical density of 0.1 in MH2 media. From these inoculums, 200 μL was transferred to each well, resulting in a final compound concentration range of 64 μM-31.3 nM for, K. pneumoniae, A. baumanni, and E. cloacae, and 256 μM-125 nM for E. faecalis. Plates inoculated with E. faecalis were placed inside a GasPak™ Container System with GasPak™ Campy Container System sachets. All plates were incubated at 200 rpm for 18 h under the microorganism culturing conditions mentioned above.
# (§3) MIC determination. After 18 h of growth, 200 μL was transferred to a 96-well F-bottom plate. The optical density was determined by a plate reader at 600 nm, with 10 s shaking before reading. Triplicate measurements were averaged, and a growth curve was plotted in Excel. The first column in which the growth reached half the value of maximum growth was determined as the MIC50 value for that particular compound.
# (§4) MIC50. The MIC50 of a compound was assigned at which the bacterial growth reached half the value of maximum growth.
# [2] = test system: E. coli ATCC25922 strain; experiment: MIC 50, broth micro-dilution, wild-type Escherichia coli; format: cell-based; settings: MH2, 18 h
# From the text: 3.1 Against E. coli Strains
# as §1
# Microbial strains. E. coli ATCC 25922, E. coli ATCC 25922/pET-9b(+), E. coli ATCC 25922/pAT21-1, E. coli ATCC 25922/pBluescript::AAC(6′)-Ie/APH(2″)-Ia, E. coli ATCC 25922/pBlue_lpp_aacC3_rrnC, E. coli ATCC 25922/pSET152.
# Culture media and equipment. BBL™ Mueller Hinton Broth 2 (Lot. BCBW1143, Cat. No. 70192, Sigma); Kanamycin A (Cat. No. A1493, AppliChem); 96-well deep well plate, 1 mL (Cat. No. 0030506.200, Eppendorf); Plate lids (Cat. No. 0030131.525, Eppendorf); 96-well plate, F-bottom (Cat. No. 781602, Brand; Incubator, Infors Multitron Pro); Laminar flow (Heraeus KS12); UV/VIS meter (Eppendorf BioPhotometer Plus); Platereader (Tecan Sunrise).
# as §2, with “MH2.” for “MH2, for tests against E. faecalis a solution of 512 μM was prepared.”
# Inoculum preparation. Microorganisms used were all revived from 20% glycerol (40% v/v glycerol in water was diluted with MH2) storage at −80° C. by inoculating them in 5 mL MH2. inoculums of E. coli containing a plasmid were selected for by adding 50 μg/mL KanaA. The Inoculums were grown to an optical density (measured by UV/Vis spectroscopy) of 0.6-0.8 at 600 nm. Out of these suspensions, actual inoculums were prepared by diluting them to an optical density (OD) of 0.1 in MH2 media. From these inoculums, 200 μL was transferred to each well, resulting in a final compound concentration range of 64 μM-31.3 nM. All plates were incubated at 900 rpm and 70% rH for 18 h at 37° C.
# as §3, with “plotted in Microsoft Excel. The” for “plotted in Excel. The”
# as §4
# [3] = Klebsiella pneumoniae, DSM26371, K. pneumoniae DSM 26371, read-out: MIC 50
# [4] = Escherichia coli, ATCC25922, 18 h
Structure (SMILES),"MIC50 [1, 3] [µM]","MIC50 [2, 4] [µM]",MIC50 ([1]; K. pneumoniae DSM 26371) [µM],MIC50 [2] [µM]
"N=C(NCCN)NC1C(O)[C@@H](CO)OC(OC2C(F)[C@H](O[C@H]3OC(CN)[C@@H](O)CC3N)C(N)C[C@H]2NC(=O)[C@@H](O)CCN)[C@@H]1O (stereo partly shown) [ABX5020, Tobra-AHB-F-Gua-2-amino-ethyl]",0.5,0.5,,
"N=C(NC[C@@H]1CCNC1)NC1[C@@H](O)C(OC2[C@@H](F)[C@H](O[C@H]3OC(CN)[C@@H](O)CC3N)C(N)C[C@H]2NC(=O)[C@@H](O)CCN)O[C@H](CO)[C@H]1O (stereo partly drawn) [ABX5039, Tobra-AHB-F-Gua (R) pyrrolidine-3-ylmethyl]",0.5,0.25,,
"N=C(NCCO)NC1[C@@H](O)C(OC2[C@@H](F)[C@H](O[C@H]3OC(CN)[C@@H](O)CC3N)C(N)C[C@H]2NC(=O)[C@@H](O)CCN)O[C@H](CO)[C@H]1O (stereo partly shown) [ABX5029, Tobra-AHB-F-Gua 2-hydroxy-ethyl]",0.125 to 0.25,0.5,,
"N=C(NCCCO)NC1[C@@H](O)C(OC2[C@@H](F)[C@H](O[C@H]3OC(CN)[C@@H](O)CC3N)C(N)C[C@H]2NC(=O)[C@@H](O)CCN)O[C@H](CO)[C@H]1O (stereo partly shown) [ABX5041, Tobra-AHB-F-Gua 3-hydroxy-propyl]",0.5,0.5,,
"NCCC(O)C(=O)NC1CC(N)C(OC2OC(CN)C(O)C(O)C2N)C(O)C1OC1OC(CO)C(O)C(N)C1O (stereo not shown) [ABX4001, KanaB-AHB]",,,0.5,2
"N=C(N)NC1[C@@H](O)C(OC2[C@@H](F)[C@H](O[C@H]3OC(CN)[C@@H](O)[C@H](O)C3N)C(N)C[C@H]2NC(=O)[C@@H](O)CCN)O[C@H](CO)[C@H]1O (stereo partly shown) [ABX4006, KanaB-AHB-F-Gua]",0.125,,,
"N=C(NCC1CC1)NC1[C@@H](O)C(OC2[C@@H](F)[C@H](O[C@H]3OC(CN)[C@@H](O)CC3N)C(N)C[C@H]2NC(=O)[C@@H](O)CCN)O[C@H](CO)[C@H]1O (stereo partly shown) [ABX5027, Tobra-AHB-F-Gua cyclopropylmethyl]",0.125,0.5,,
"N=C(N)NC1[C@@H](O)C(OC2[C@@H](O)[C@H](O[C@H]3OC(CN)[C@@H](O)CC3N)C(N)C[C@H]2NC(=O)[C@@H](O)CCN)O[C@H](CO)[C@H]1O (stereo partly shown) [ABX5005, Tobra-AHB-Gua]",,,0.25,1 to 2
"N=C(NC[C@@H]1CNCCO1)NC1[C@@H](O)C(OC2[C@@H](F)[C@H](O[C@H]3OC(CN)[C@@H](O)CC3N)C(N)C[C@H]2NC(=O)[C@@H](O)CCN)O[C@H](CO)[C@H]1O (stereo partly drawn) [ABX5040, Tobra-AHB-F-Gua (S) morpholin-2-yl methyl]",0.5,0.5,,
"C[C@@H](N)CCNC(=N)NC1[C@@H](O)C(OC2[C@@H](F)[C@H](O[C@H]3OC(CN)[C@@H](O)CC3N)C(N)C[C@H]2NC(=O)[C@@H](O)CCN)O[C@H](CO)[C@H]1O (stereo partly drawn) [ABX5047, Tobra-AHB-F-Gua (R) 3-amino-butyl]",0.25,0.25,,
"NCC[C@H](O)C(=O)N[C@@H]1CC(N)[C@@H](O[C@H]2OC(CN)[C@@H](O)[C@@H](O)C2N)[C@H](O)C1OC1O[C@H](CO)[C@@H](O)C(N)[C@H]1O (stereo partly drawn) [ABX4002, 3′Epi-KanaB-AHB]",,,1,8
"N=C(NC[C@H]1CCNC1)NC1[C@@H](O)C(OC2[C@@H](F)[C@H](O[C@H]3OC(CN)[C@@H](O)CC3N)C(N)C[C@H]2NC(=O)[C@@H](O)CCN)O[C@H](CO)[C@H]1O (stereo partly drawn) [ABX5042, Tobra-AHB-F-Gua (S) pyrrolidine-3-ylmethyl]",0.5,0.25,,
"N=C(NC[C@H]1CNCCO1)NC1[C@@H](O)C(OC2[C@@H](F)[C@H](O[C@H]3OC(CN)[C@@H](O)CC3N)C(N)C[C@H]2NC(=O)[C@@H](O)CCN)O[C@H](CO)[C@H]1O (stereo partly drawn) [ABX5043, Tobra-AHB-F-Gua (R) morpholin-2-yl methyl]",0.5,0.25,,
"N=C(N)NC1C(O)[C@@H](CO)OC(OC2C(F)[C@H](O[C@H]3OC(CN)[C@@H](O)CC3N)C(N)C[C@H]2NC(=O)[C@@H](O)CCN)[C@@H]1O (stereo partly shown) [ABX5006, Tobra-AHB-F-Gua]",< 0.25,< 0.25,,
"N=C(N)N[C@@H]1[C@@H](O)[C@@H](O[C@@H]2[C@@H](O)[C@H](O[C@H]3O[C@H](CN)[C@@H](O)[C@@H](O)[C@H]3N)[C@@H](N)C[C@H]2NC(=O)[C@@H](O)CCN)O[C@H](CO)[C@H]1O [ABX4005, 3′Epi-KanaB-AHB-Gua]",,,1 to 2,4
"CC(C)(C)CCNC(=N)NC1[C@@H](O)C(OC2[C@@H](F)[C@H](O[C@H]3OC(CN)[C@@H](O)CC3N)C(N)C[C@H]2NC(=O)[C@@H](O)CCN)O[C@H](CO)[C@H]1O (stereo partly shown) [ABX5025, Tobra-AHB-F-Gua 2-tBu-ethyl]",0.5,0.25 to 0.5,,
"N=C(NCC1CCCO1)NC1[C@@H](O)C(OC2[C@@H](F)[C@H](O[C@H]3OC(CN)[C@@H](O)CC3N)C(N)C[C@H]2NC(=O)[C@@H](O)CCN)O[C@H](CO)[C@H]1O (stereo partly shown) [ABX5046, Tobra-AHB-F-Gua tetrahydrofuran-2-yl methyl]",0.5,0.5,,
"N=C(NC[C@@H]1CCCN1)NC1[C@@H](O)C(OC2[C@@H](F)[C@H](O[C@H]3OC(CN)[C@@H](O)CC3N)C(N)C[C@H]2NC(=O)[C@@H](O)CCN)O[C@H](CO)[C@H]1O (stereo partly drawn) [ABX5026, Tobra-AHB-F-Gua (S) pyrrolidine-2-yl-methyl]",0.125,0.25,,
"N=C(N)NC1[C@@H](O)C(OC2[C@@H](F)[C@H](O[C@H]3OC(CN)[C@@H](O)[C@H](O)C3N)C(N)C[C@H]2NC(=O)[C@@H](O)CCN)O[C@H](CO)[C@H]1O (stereo partly drawn) [ABX4004, 3′epi-KanaB-AHB-F-Gua]",,,0.25,1 to 2
